By pIC50 is commonly meant the negative decadic logarithm of the IC50, by convention in mol/L. Low values mean a large IC50, high ones a small IC50. By pKd is commonly meant the Kd on a negative log10 scale, so that one unit is a factor of ten. High values mean a small Kd, low ones a large Kd.

pIC50, pKd: −log10 of the molar value. Read-outs that look alike come from different tables or passages of the source.

Common to all, as to type: binding
Experiment [1] has as its target T1, TetR mutant (Escherichia coli, UniProt P04483, H139W).
T1 construct: made in house; host or cells: E. coli Rosetta-gami(BL21), vector pET28a
Briefly: Fluorescence polarization assay (FPA) with TetR mutant. The following applies: for LOD (limit of detection, IC10) / inhibition ratio (1-FP/FP0): TetR mutant; for LOD (limit of detection, IC10): FPA, FA-MC tracer, drugs diluted with blank milk extract; for inhibition ratio (1-FP/FP0): 100 ng/mL. Here is the method:
(§1) The FPA method was performed as follows. A total of 50 μL mutant, 50 μL TCs solution, and 50 μL fluorescent tracer were added into the wells of a 96-well microplate (in triplicate) and incubated for 2 min. Then the fluorescence polarization (FP) value of each well was recorded (λex 485 nm, λem 528 nm, emission cutoff of 515 nm). During the experiments, the two fluorescent tracers were compared, and several other parameters were optimized, including tracer concentration, mutant concentration, Mg^2+ concentration and incubation time. The 10 TCs and several other classes of drugs were all tested by this method. The competitive curve was developed by plotting the FP/FP0 values (the fluorescence polarization value at each concentration divided by that of zero concentration) versus the concentrations of the TCs (log C). Based on the developed competitive curve, the half of inhibition (IC50) and the limit of detection (IC10) for each drug were determined, respectively.
For obtaining the best method performance, several parameters were optimized with DMC as the representative. Firstly, the concentrations of FA-MC and the mutant were optimized. During the experiments, the FA-MC and the mutant at different concentrations were mixed with the same concentration of DMC to perform the assay. […] Secondly, the concentration of Mg^2+ (MgCl2) was optimized. […] Thirdly, the competition time was optimized.
(§2) This is the first study reporting an FPA method for the determination of TCs. Under the optimal conditions, the 10 TCs were diluted with the extracts of a blank milk sample to be analyzed, respectively. […] During the experiments, the natural TetR was also used to perform the FPA method as described above.
On the technique in general: Polarisation of emitted light reports the rotation of a fluorescent probe.

The target of experiment [2] is T2, natural TetR (Escherichia coli, UniProt P04483).
T2 construct: made in house
Briefly: Surface plasmon resonance affinity, natural TetR. The following applies: for pKd: KD (equilibrium dissociation constant, Kd/Ka); for pKd / koff (dissociation rate constant): SPR. As to the method:
(§3) After the experiments, the association constant (Ka), the dissociation constant (Kd), and the equilibrium dissociation constant (KD = Kd/Ka) for each drug were calculated. For convenience in comparing their affinities, the absolute affinity constant (KA = […]) for each drug was also calculated.
(In general: SPR reads the build-up and loss of mass on a sensor chip optically.)

The target of experiment [3] is T2, natural TetR. Kind of experiment: Fluorescence polarization assay (FPA) with natural TetR. As to the method:
as §1, §2

Experiment [4] concerns the target T1, TetR mutant. Kind of experiment: Surface plasmon resonance affinity, TetR mutant. The conditions noted are these: SPR; for pKd: KD (equilibrium dissociation constant, Kd/Ka). As to the method: as §3
The primers were designed according to the virtual model: mutant for, […]; mutant rev, […]. The amplified gene was inserted into pET28a to construct the express vector that was transformed into E. coli Rosetta-gami(BL21) to express the mutant, and these procedures were according to our recent report. The obtained TetR mutant was characterized by using SDS-PAGE and western blotting according to our recent report, and its recognition ability for the 10 TCs was evaluated by the following FPA method. Furthermore, its recognition mechanisms and affinities for the 10 TCs were also determined as described above.

Setting [5] is: read-out: Ka (association constant), TetR without Mg2+, SPR.
[6] abbreviates: read-out: Ka (association constant), TetR+Mg2+, SPR.

In the case of `CN(C)[C@@H]1C(O)=C(C(=O)NCNCCCC[C@H](N)C(=O)O)C(=O)[C@@]2(O)C(O)=C3C(=O)c4c(O)cccc4[C@@](C)(O)[C@H]3C[C@@H]12` [LMC, Lymecycline], the pIC50 was 7.12 in experiment [1] and 7.03 in experiment [3]. Also, in experiment [1], the “LOD (limit of detection, IC10)” value is listed as 1.0 ng/mL. The pKd in experiment [2] (TetR without Mg2+) was 6.44; in experiment [2] (TetR+Mg2+), 6.58; in experiment [4] (TetR mutant without Mg2+), 8.60; in experiment [4] (TetR mutant+Mg2+), 8.96. For the same compound, the “koff (dissociation rate constant)” value in experiment [2] (TetR without Mg2+) was 0.00116 s⁻¹; in experiment [2] (TetR+Mg2+) it was 0.00121 s⁻¹. Further, the results for the kon in experiment [2] (setting [5]) and in experiment [2] (setting [6]) were 3170 M⁻¹ s⁻¹ and 4590 M⁻¹ s⁻¹, respectively. The figures for the “Dissociation rate constant (koff)” value in experiment [4] (TetR mutant without Mg2+) and in experiment [4] (TetR mutant+Mg2+) were 7.25e-05 s⁻¹ and 0.00011 s⁻¹, respectively.

As for `CN(C)[C@@H]1C(O)=C(C(N)=O)C(=O)[C@@]2(O)C(O)=C3C(=O)c4c(O)ccc(Cl)c4[C@@H](O)[C@H]3C[C@@H]12` [DMC, demeclocycline], the negative logarithm of the IC50 (pIC50) in experiment [1] was 7.48; in experiment [3], 7.18. The “inhibition ratio (1-FP/FP0)” value is listed as 69% in experiment [1] (tracer FA-MC) and 52% in experiment [1] (tracer FITC-MC). Further, in experiment [1], the “LOD (limit of detection, IC10)” value is on record as 0.4 ng/mL. Also, the pKd was 7.13 in experiment [2] (TetR without Mg2+), 7.56 in experiment [2] (TetR+Mg2+), 8.51 in experiment [4] (TetR mutant without Mg2+) and 10.03 in experiment [4] (TetR mutant+Mg2+). In addition, the “koff (dissociation rate constant)” value in experiment [2] (TetR without Mg2+) was 0.000206 s⁻¹; in experiment [2] (TetR+Mg2+), 0.000127 s⁻¹. Further, the kon was found to be 2770 M⁻¹ s⁻¹ in experiment [2] (setting [5]) and 4610 M⁻¹ s⁻¹ in experiment [2] (setting [6]). In addition, the “Dissociation rate constant (koff)” value in experiment [4] (TetR mutant without Mg2+) turned out to be 1.72e-05 s⁻¹; in experiment [4] (TetR mutant+Mg2+), 4.7e-06 s⁻¹.

As to `CN(C)[C@@H]1C(O)=C(C(N)=O)C(=O)[C@@]2(O)C(O)=C3C(=O)c4c(O)cccc4[C@@](C)(O)[C@H]3[C@H](O)[C@@H]12` [OTC, oxytetracycline], the pIC50 in experiment [1] was 7.11; in experiment [3], 6.89. Besides, in experiment [1], the “LOD (limit of detection, IC10)” value stood at 0.8 ng/mL. Moreover, the pKd in experiment [2] (TetR without Mg2+) was 6.02; in experiment [2] (TetR+Mg2+), 6.39; in experiment [4] (TetR mutant without Mg2+), 8.75; in experiment [4] (TetR mutant+Mg2+), 8.83. Further, the “koff (dissociation rate constant)” value in experiment [2] (TetR without Mg2+) came out at 0.00199 s⁻¹; in experiment [2] (TetR+Mg2+), 0.00144 s⁻¹. The kon in experiment [2] (setting [5]) is 2060 M⁻¹ s⁻¹; in experiment [2] (setting [6]) it was 3520 M⁻¹ s⁻¹. The “Dissociation rate constant (koff)” value in experiment [4] (TetR mutant without Mg2+) turned out to be 7.96e-05 s⁻¹; in experiment [4] (TetR mutant+Mg2+) it was 0.00012 s⁻¹.

As to `CN(C)[C@@H]1C(O)=C(C(N)=O)C(=O)[C@@]2(O)C(O)=C3C(=O)c4c(O)cccc4C[C@H]3C[C@@H]12` [SC, Sancycline], the figures for the pIC50 in experiment [1] and in experiment [3] were 7.16 and 6.98, respectively. The “LOD (limit of detection, IC10)” value in experiment [1] is 0.7 ng/mL. In addition, the negative logarithm of the Kd (pKd) in experiment [2] (TetR without Mg2+) was 7.23; in experiment [2] (TetR+Mg2+), 7.15; in experiment [4] (TetR mutant without Mg2+) it was 9.23; in experiment [4] (TetR mutant+Mg2+) it was 9.38. Further, the figures for the “koff (dissociation rate constant)” value in experiment [2] (TetR without Mg2+) and in experiment [2] (TetR+Mg2+) were 0.000127 s⁻¹ and 0.000162 s⁻¹, respectively. In addition, the values for the kon in experiment [2] (setting [5]) and in experiment [2] (setting [6]) were 2140 M⁻¹ s⁻¹ and 2310 M⁻¹ s⁻¹, respectively. In addition, the “Dissociation rate constant (koff)” value was found to be 6.35e-06 s⁻¹ in experiment [4] (TetR mutant without Mg2+) and 5.79e-06 s⁻¹ in experiment [4] (TetR mutant+Mg2+).

Regarding `CN(C)c1ccc(O)c2c1C[C@H]1C[C@H]3[C@H](N(C)C)C(O)=C(C(N)=O)C(=O)[C@@]3(O)C(O)=C1C2=O` [MC, minocycline], the figures for the pIC50 in experiment [1] and in experiment [3] were 7.28 and 7.02, respectively. Also, in experiment [1], the “LOD (limit of detection, IC10)” value worked out at 0.5 ng/mL. Also, the pKd was 6.95 in experiment [2] (TetR without Mg2+), 7.15 in experiment [2] (TetR+Mg2+), 8.51 in experiment [4] (TetR mutant without Mg2+) and 9.72 in experiment [4] (TetR mutant+Mg2+). Also, the “koff (dissociation rate constant)” value in experiment [2] (TetR without Mg2+) was 0.000507 s⁻¹; in experiment [2] (TetR+Mg2+), 0.000511 s⁻¹. In addition, the kon in experiment [2] (setting [5]) was 4540 M⁻¹ s⁻¹; in experiment [2] (setting [6]) it was 7270 M⁻¹ s⁻¹. Also, the entries for the “Dissociation rate constant (koff)” value in experiment [4] (TetR mutant without Mg2+) and in experiment [4] (TetR mutant+Mg2+) were 4.23e-05 s⁻¹ and 3.19e-05 s⁻¹, respectively.

`C[C@H]1c2cccc(O)c2C(=O)C2=C(O)[C@]3(O)C(=O)C(C(N)=O)=C(O)[C@@H](N(C)C)[C@@H]3[C@@H](O)[C@@H]21` [DC, doxycycline]: the results for the pIC50 in experiment [1] and in experiment [3] were 7.17 and 7.08, respectively. For the same compound, the “LOD (limit of detection, IC10)” value in experiment [1] was 1.0 ng/mL. In addition, the pKd in experiment [2] (TetR without Mg2+) is 7.68; in experiment [2] (TetR+Mg2+), 7.39; in experiment [4] (TetR mutant without Mg2+) it was 9.60; in experiment [4] (TetR mutant+Mg2+), 9.19. The “koff (dissociation rate constant)” value amounted to 0.00113 s⁻¹ in experiment [2] (TetR without Mg2+) and 0.0018 s⁻¹ in experiment [2] (TetR+Mg2+). The kon in experiment [2] (setting [5]) was determined as 53400 M⁻¹ s⁻¹; in experiment [2] (setting [6]) it was 43900 M⁻¹ s⁻¹. Also, the “Dissociation rate constant (koff)” value came to 6.65e-05 s⁻¹ in experiment [4] (TetR mutant without Mg2+) and 0.000113 s⁻¹ in experiment [4] (TetR mutant+Mg2+).

Values taken from article PMC9735679, “Identification and Evolution of a Natural Tetr Protein Based on Molecular Docking and Development of a Fluorescence Polari-Zation Assay for Multi-Detection of 10 Tetracyclines in Milk” (Foods, 2022).
